The values that follow come from patent US6686371B2, “Non-steroidal, tetracylic compounds for estrogen-related treatments” (Akzo Nobel N.V., priority 2000, dated 2004).

Data set [1] has as its target T1, human estrogen receptor α (hERα) (Homo sapiens, UniProt P03372).
T1 construct: expressed in transfected cells; host or cells: cytosol of recombinant Chinese hamster ovary (CHO) cells stably transfected with hERα
T1 sequence (P03372 1-595): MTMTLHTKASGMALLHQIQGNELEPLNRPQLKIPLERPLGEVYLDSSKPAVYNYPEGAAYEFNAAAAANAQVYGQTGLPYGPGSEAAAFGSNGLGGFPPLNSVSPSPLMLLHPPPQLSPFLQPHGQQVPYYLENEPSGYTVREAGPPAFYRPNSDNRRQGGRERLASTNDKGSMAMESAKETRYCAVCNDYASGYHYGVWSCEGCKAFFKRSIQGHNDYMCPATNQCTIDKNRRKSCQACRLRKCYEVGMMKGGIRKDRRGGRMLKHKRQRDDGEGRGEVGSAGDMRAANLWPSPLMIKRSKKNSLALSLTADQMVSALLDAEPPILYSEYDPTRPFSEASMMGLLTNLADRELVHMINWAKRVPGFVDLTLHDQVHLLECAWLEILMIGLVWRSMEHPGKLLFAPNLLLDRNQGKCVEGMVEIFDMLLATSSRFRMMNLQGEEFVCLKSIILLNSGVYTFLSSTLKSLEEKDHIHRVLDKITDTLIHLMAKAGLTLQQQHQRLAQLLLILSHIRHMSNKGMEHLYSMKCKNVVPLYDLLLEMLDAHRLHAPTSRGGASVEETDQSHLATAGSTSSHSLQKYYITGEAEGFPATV
Description: competitive binding to cytoplasmic human estrogen receptor α from recombinant CHO cells. The following applies: % relative to 17β-estradiol; cytosol of recombinant CHO cells; Table 2. The protocol:
(§1) Compounds are tested for their estrogen receptor activity in a binding assay and in a transactivation assay.
(§2) Determination of competitive binding to cytoplasmic human estrogen receptor α or β from recombinant CHO cells is used to estimate the relative affinity (potency ratio) of a test compound for estrogen receptors present in the cytosol of recombinant Chinese hamster ovary (CHO) cells, stably transfected with the human estrogen receptor α (hERα) or β receptor (hERβ), as compared with estradiol (E2).

For data set [2], the target named is T2, human estrogen receptor β receptor (hERβ) (Homo sapiens, UniProt Q92731).
T2 construct: expressed in transfected cells; host or cells: Chinese hamster ovary (CHO) cells, stably co-transfected with hERβ, rat oxytocin promoter and luciferase reporter
As to the kind of experiment: transactivation assay, estrogenic activity, recombinant CHO cells co-transfected with hERβ, rat oxytocin promoter and luciferase reporter. The following applies: for ERβ Transactivation (Potency Transactivation (ERβ)): potency % relative to 17β-estradiol, CHO cells, hERβ, luciferase reporter; for β/α ratio Transactivation: ratio of transactivation potency hERβ over hERα. Format: cell-based. The protocol: as §1
The estrogenic and antiestrogenic activity of compounds is determined in an in vitro bioassay with recombinant Chinese hamster ovary (CHO) cells stably co-transfected with the human estrogen receptor α (hERα) or β receptor (hERβ), the rat oxytocin promoter (RO) and the luciferase reporter gene (LUC). The estrogenic activity (potency ratio) of a test compound to stimulate the transactivation of the enzyme luciferase mediated via the estrogen receptors hERα or hERβ is compared with the standard estrogen estradiol. The antiestrogenic activity (potency ratio) of a test compound to inhibit the transactivation of the enzyme luciferase mediated via the estrogen receptors hERα or hERβ by the estrogen estradiol is compared with the standard ICI 164.384 (=(7α,17β)-N-butyl-3,17-dihydroxy-N-methylestra-1,3,5(10)-triene-7-undecanamide).

Data set [3] addresses T2, human estrogen receptor β receptor (hERβ). Description: competitive binding to cytoplasmic human estrogen receptor β from recombinant CHO cells. The following applies: % relative to 17β-estradiol, cytosol of recombinant CHO cells; for ERβ Binding (Potency Binding (ERβ)): Table 1; for Binding ERβ: Table 2. The protocol:
as §1, §2

T2 sequence (Q92731 whole entry): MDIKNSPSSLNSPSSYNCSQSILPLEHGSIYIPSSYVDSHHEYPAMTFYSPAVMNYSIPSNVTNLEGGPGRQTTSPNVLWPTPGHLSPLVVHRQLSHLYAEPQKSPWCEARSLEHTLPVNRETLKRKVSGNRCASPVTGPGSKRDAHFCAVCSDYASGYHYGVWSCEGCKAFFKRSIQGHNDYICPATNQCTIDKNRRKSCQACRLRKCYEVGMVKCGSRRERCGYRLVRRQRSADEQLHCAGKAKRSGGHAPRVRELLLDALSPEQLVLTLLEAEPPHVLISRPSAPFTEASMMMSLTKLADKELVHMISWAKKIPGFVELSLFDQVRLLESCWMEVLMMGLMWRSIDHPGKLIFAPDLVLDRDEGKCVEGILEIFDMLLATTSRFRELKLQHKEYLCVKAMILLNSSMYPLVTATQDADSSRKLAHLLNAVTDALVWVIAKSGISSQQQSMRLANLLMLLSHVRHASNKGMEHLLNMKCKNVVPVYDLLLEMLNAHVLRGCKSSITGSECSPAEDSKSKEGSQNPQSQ

For the compound “10-chloro-1,1-dimethyl-2,8-dihydroxy-11H-indeno[1,2-b]quinoline [Compound 7d]”, the “Binding ERα” value in data set [1] is given as “+++ (between 3.5-8%)”.
As to `COc1ccc2c(c1)Cc1c-2nc2ccc(OC)cc2c1Cl` [Compound 2a, 10-chloro-2,8-dimethoxy-11H-indeno[1,2-b]quinoline], in data set [2], the “ERβ Transactivation (Potency Transactivation (ERβ))” value (“ERβ Transactivation” below) is given as “++ (between 4-10%)” and the “β/α ratio Transactivation” value was “+ (between 3.5-10)”. The “ERβ Binding (Potency Binding (ERβ))” value in data set [3] was “++ (between 2-10%)”.
For the compound `COc1ccc2c(c1)Cc1c-2nc2ccc(OC)cc2c1Br` [Compound 2b, 10-bromo-2,8-dimethoxy-11H-indeno[1,2-b]quinoline], in data set [2], the “ERβ Transactivation” value is “+ (between 0.1-4%)” and the “β/α ratio Transactivation” value was “++ (between 10-30)”. Also, the “ERβ Binding (Potency Binding (ERβ))” value in data set [3] was “++ (between 2-10%)”.
For the compound `CCCC(=O)Oc1ccc2c(c1)Cc1c-2nc2ccc(OC(=O)CCC)cc2c1Cl` [Compound 2c, Dibutyryl Ester of 10-chloro-2,8-dihydroxy-1H-indeno[1,2-b]quinoline], in data set [2], the “ERβ Transactivation” value was “++ (between 4-10%)” and the “β/α ratio Transactivation” value is given as “++ (between 10-30)”.
For `CCCC(=O)Oc1ccc2c(c1)Cc1c-2nc2ccc(OC(=O)CCC)cc2c1Br` [Compound 2d, Dibutyryl Ester of 10-bromo-2,8-dihydroxy-11H-indeno[1,2-b]quinoline], in data set [2], the “ERβ Transactivation” value is recorded as “+ (between 0.1-4%)” and the “β/α ratio Transactivation” value was “++ (between 10-30)”.
With `Oc1ccc2c(c1)Cc1c-2nc2ccc(O)cc2c1-c1ccccc1` [Compound 5, 10-phenyl-2,8-dihydroxy-11H-indeno[1,2-b]quinoline], the “ERβ Transactivation” value in data set [2] is “− (<0.1%)”. Also, in data set [3], the “ERβ Binding (Potency Binding (ERβ))” value is on record as “++ (between 2-10%)”.
With `Oc1ccc2c(c1)Cc1c-2nc2ccc(O)cc2c1Cl` [Compound 7a, 10-chloro-2,8-dihydroxy-11H-indenol[1,2-b]quinoline], in data set [3], the “Binding ERβ” value is reported as “+++ (between 3.5-8%)”. Besides, the “Binding ERα” value in data set [1] is given as “− (<0.3%)”.
As to `Oc1ccc2c(c1)Cc1c-2nc2ccc(O)cc2c1Br` [Compound 7b, 10-bromo-2,8-dihydroxy-11H-indeno[1,2-b]quinoline], in data set [3], the “Binding ERβ” value was “++ (between 1.5-3.5%)”. In data set [1], the “Binding ERα” value is “− (<0.3%)”.
As for `Cc1c(O)ccc2c1Cc1c-2nc2ccc(O)cc2c1Cl` [Compound 7c, 10-chloro-1-methyl-2,8-dihydroxy-11H-indeno[1,2-b]quinoline], in data set [3], the “Binding ERβ” value is listed as “++ (between 1.5-3.5%)”. In addition, the “Binding ERα” value in data set [1] is given as “+ (between 0.1-1.5%)”.
Consider `Oc1ccc2nc3c(c(Cl)c2c1)-c1cccc(O)c1CC3` [Compound 8, 12-chloro-4,10-dihydroxy-5,6-dihydro-benz[a]acridine], for which the “Binding ERβ” value in data set [3] is recorded as “++ (between 1.5-3.5%)”. Also, the “Binding ERα” value in data set [1] was “++ (between 1.5-3.5%)”.
With `Oc1ccc2c(c1)CCc1c-2nc2ccc(O)cc2c1Cl` [Compound 10, 7-chloro-3,9-dihydroxy-5,6-dihydro-benz[c]acridine], the “Binding ERβ” value in data set [3] was “++++ (>8%)”. In addition, in data set [1], the “Binding ERα” value was “++++ (>8%)”.
A word on the melting point: it is the temperature of the solid-liquid transition. Compound `Oc1ccc2c(c1)CCc1c-2cc2ccc(O)cc2c1C1CCCC1` [Compound 16, 3,9-dihydroxy-7-cyclopentyl-5,6-dihydro-benz[a]anthracene] registered a melting point of 233 to 235 °C.
`Oc1ccc(-c2c3c(cc4ccc(O)cc24)-c2ccc(O)cc2CC3)cc1` [Compound 16a, 3,9-dihydroxy-7-(4-hydroxyphenyl)-5,6-dihydro-benz[a]anthracene] displayed a melting point of 272 °C.
`CCCc1c2c(c(Cl)c3ccc(O)cc13)-c1ccc(O)cc1C2` [Compound 22, 2,8-dihydroxy-5-chloro-10-propyl-11H-benzo[b]fluorene]: the melting point lay in the range of 223 to 224 °C.
Consider `Oc1ccc2c(c1)Cc1cc3ccc(O)cc3cc1-2` [Compound 25, 2,7-dihydroxy-11H-benzo[b]fluorene], for which, in data set [2], the “ERβ Transactivation” value is “+ (between 0.1-4%)” and the “β/α ratio Transactivation” value is “− (<3.5)”. Besides, in data set [3], the “ERβ Binding (Potency Binding (ERβ))” value is listed as “++ (between 2-10%)”.
The compound `CCc1c2c(c(Cl)c3ccc(O)cc13)-c1ccc(O)cc1C2` [Compound 40, 2,8-dihydroxy-5-chloro-10-ethyl-11H-benzo[b]fluorene] showed a melting point of 250 to 251 °C.
On to `CCc1c2c(c(CC)c3ccc(O)cc13)-c1ccc(O)cc1C2` [Compound 47, 2,8-dihydroxy-5,10-diethyl-11H-benzo[b]fluorene], for which the melting point was 255 °C (dec.).
The same measure, in the same setting: with `Oc1ccc2c(c1)Cc1c-2cc2ccc(O)cc2c1C=C(F)F` [Compound 50, 2,8-dihydroxy-10-(2,2-difluoro-ethenyl)-11H-benzo[b]fluorene] the figure was 211 to 212 °C; with `CC1c2cc(O)ccc2-c2c1cc1cc(O)ccc1c2Cl` (stereo not drawn) [Compound 54, 2,8-dihydroxy-5-chloro-11-methyl-11H-benzo[b]fluorene], 215 to 220 °C; with `CCCc1c2c(c(CCC)c3ccc(O)cc13)-c1ccc(O)cc1C2` [Compound 57, 2,8-dihydroxy-5,10-dipropyl-11H-benzo[b]fluorene], 250 °C.
As for `Oc1ccc2c(c1)Cc1cc3cc(O)ccc3c(Cl)c1-2` [Compound 60, 2,8-dihydroxy-5-chloro-11H-benzo[b]fluorene], in data set [2], the “ERβ Transactivation” value was “+++ (>10%)” and the “β/α ratio Transactivation” value was “+++ (>30)”. In data set [3], the “ERβ Binding (Potency Binding (ERβ))” value is “+++ (>10%)” and the “Binding ERβ” value is on record as “++++ (>8%)”. Moreover, the “Binding ERα” value in data set [1] is recorded as “++ (between 1.5-3.5%)”.
`Oc1ccc2c(c1)Cc1c-2cc2ccc(O)cc2c1Cl` [Compound 67a, 2,8-dihydroxy-10-chloro-11H-benzo[b]fluorene]: in data set [2], the “ERβ Transactivation” value is given as “+++ (>10%)” and the “β/α ratio Transactivation” value was “+++ (>30)”. Further, the “ERβ Binding (Potency Binding (ERβ))” value in data set [3] is recorded as “+++ (>10%)”.
On to `Oc1ccc2c(c1)Cc1c-2cc2ccc(O)cc2c1Br` [Compound 67b, 2,8-dihydroxy-10-bromo-11H-benzo[b]fluorene], for which, in data set [2], the “ERβ Transactivation” value is reported as “+++ (>10%)” and the “β/α ratio Transactivation” value is recorded as “+++ (>30)”. The “ERβ Binding (Potency Binding (ERβ))” value in data set [3] is listed as “+++ (>10%)”.
Regarding `Oc1ccc2c(c1)Cc1c-2cc2ccc(O)cc2c1I` [Compound 67c, 2,8-dihydroxy-10-iodo-11H-benzo[b]fluorene], in data set [2], the “ERβ Transactivation” value is reported as “+++ (>10%)” and the “β/α ratio Transactivation” value is reported as “+++ (>30)”. The “ERβ Binding (Potency Binding (ERβ))” value in data set [3] is reported as “+++ (>10%)”.
With `Cc1c2c(cc3ccc(O)cc13)-c1ccc(O)cc1C2` [Compound 67d, 2,8-dihydroxy-10-methyl-11H-benzo[b]fluorene], the melting point amounted to 265 °C. Also, in data set [2], the “ERβ Transactivation” value is recorded as “+ (between 0.1-4%)” and the “β/α ratio Transactivation” value was “++ (between 10-30)”. In data set [3], the “ERβ Binding (Potency Binding (ERβ))” value was “++ (between 2-10%)”.
Consider `Oc1ccc2c(c1)Cc1c-2cc2ccc(O)cc2c1C(F)(F)F` [Compound 67e, 2,8-dihydroxy-10-trifluoromethyl-11H-benzo[b]fluorene], for which, in data set [2], the “ERβ Transactivation” value is given as “++ (between 4-10%)” and the “β/α ratio Transactivation” value is on record as “++ (between 10-30)”. Besides, the “ERβ Binding (Potency Binding (ERβ))” value in data set [3] is “+++ (>10%)”.
As to `CC(C)(C)C(=O)Oc1ccc2c(c1)Cc1c-2cc2ccc(OC(=O)C(C)(C)C)cc2c1Cl` [Compound 68a, di-pivaloyl Ester of 2,8-dihydroxy-10-chloro-11H-benzo[b]fluorene], in data set [2], the “ERβ Transactivation” value is given as “++ (between 4-10%)” and the “β/α ratio Transactivation” value was “+++ (>30)”.
Consider `Oc1ccc2c(c1)Cc1cc3cc(O)ccc3cc1-2` [Compound 69, 2,8-dihydroxy-11H-benzo[b]fluorene], for which, in data set [2], the “ERβ Transactivation” value is reported as “+ (between 0.1-4%)” and the “β/α ratio Transactivation” value is “+ (between 3.5-10)”. Also, the “ERβ Binding (Potency Binding (ERβ))” value in data set [3] is given as “++ (between 2-10%)”.
